Reference: US20070128217A1 (priority 2003, published 2007)

Assays:
[1] = tested on: antibodies in sera from SARS patients (sera 1a, 1b, 2, 6, 37, 62, London, SARS-yellow, SARS-green); format: binding, human; design: Binding of serum 6 to linear peptides of protein X1 of SARS-CoV Urbani / Binding of serum 37 to linear peptides of protein X1 of SARS-CoV Urbani / Binding of serum 6 to looped/cyclic peptide (PEPSCAN-ELISA) / Binding of serum 37 to looped/cyclic peptide (PEPSCAN-ELISA) / Binding of serum 37 to looped/cyclic peptides of protein X1 of SARS-CoV Urbani / Binding of serum 6 to linear peptides of protein X2 / Binding of serum 37 to linear peptides of protein X2 / Binding of serum 37 to looped/cyclic peptides of protein X2 of SARS-CoV Urbani / Binding of serum 6 to linear peptides of protein M of SARS-CoV Urbani / Binding of serum 37 to linear peptides of protein M of SARS-CoV Urbani / Binding of serum 6 to looped/cyclic peptides of protein M of SARS-CoV Urbani / Binding of serum 37 to looped/cyclic peptides of protein M of SARS-CoV Urbani / Binding of serum 6 to linear peptides of protein X3 of SARS-CoV Urbani / Binding of serum 37 to linear peptides of protein X3 of SARS-CoV Urbani / Binding of serum 37 to looped/cyclic peptides of protein X3 of SARS-CoV Urbani / Binding of serum 6 to linear peptides of protein X4 of SARS-CoV Urbani / Binding of serum 37 to linear peptides of protein X4 of SARS-CoV Urbani / Binding of serum 37 to looped/cyclic peptides of protein X4 of SARS-CoV Urbani / Binding of serum 6 to linear peptides of protein X5 of SARS-CoV Urbani / Binding of serum 37 to linear peptides of protein X5 of SARS-CoV Urbani / Binding of serum 37 to looped/cyclic peptides of protein X5 of SARS-CoV Urbani / Binding of serum 6 to linear peptides of protein N of SARS-CoV Urbani / Binding of serum 37 to linear peptides of protein N of SARS-CoV Urbani / Binding of serum 6 to linear peptide (PEPSCAN-ELISA) / Binding of serum 1a to looped/cyclic peptides of protein N of SARS-CoV Urbani / Binding of serum 1b to looped/cyclic peptides of protein N of SARS-CoV Urbani / Binding of serum 2 to looped/cyclic peptides of protein N of SARS-CoV Urbani / Binding of serum 6 to looped/cyclic peptides of protein N of SARS-CoV Urbani / Binding of serum 37 to looped/cyclic peptides of protein N of SARS-CoV Urbani / Binding of serum 62 to looped/cyclic peptides of protein N of SARS-CoV Urbani / Binding of serum London to looped/cyclic peptides of protein N of SARS-CoV Urbani / Binding of serum SARS-green to looped/cyclic peptides of protein N of SARS-CoV Urbani: unit not given here
[2] = tested on: rabbit serum obtained by immunizing a rabbit with the SARS-CoV strain Frankfurt 1; format: binding; design: Binding of a rabbit serum to linear peptides / Binding of a rabbit serum to looped peptides / Rabbit serum linear peptides / Rabbit serum looped peptides / Binding of a rabbit serum to linear peptides of protein N of SARS-CoV Urbani (Rabbit serum linear peptides) / Binding of a rabbit serum to looped/cyclic peptides of protein N of SARS-CoV Urbani (Rabbit serum looped peptides): unit not given here
[3] = tested on: control sera (pooled serum of ten healthy LUMC hospital workers; commercial negative donor pooled serum from the Dutch bloodbank); format: binding, human; design: Binding of Control serum LUMC to linear peptides / Binding of Control serum Blood-bank to linear peptides / Binding of Control serum LUMC to looped peptides / Binding of Control Serum Blood-Bank to Looped peptides / Binding of Control serum LUMC to linear peptides of the protein M of SARS-CoV Urbani / Binding of Control serum Blood-bank to linear peptides of the protein M of SARS-CoV Urbani / Binding of Control serum LUMC to looped peptides of the protein M of SARS-CoV Urbani / Binding of Control Serum Blood-Bank to Looped peptides of the protein M of SARS-CoV Urbani: unit not given here

YRIGNYKLNTDHAGS
Binding of serum 1a to linear peptides of protein M of SARS-CoV Urbani [1]: 0.7 | Binding of serum 1a to looped/cyclic peptides of protein M of SARS-CoV Urbani [1]: 0.8 | Binding of serum 1b to linear peptides of protein M of SARS-CoV Urbani [1]: 0.6 | Binding of serum 1b to looped/cyclic peptides of protein M of SARS-CoV Urbani [1]: 0.6 | Binding of serum 2 to linear peptides of protein M of SARS-CoV Urbani [1]: 0.5 | Binding of serum 2 to looped/cyclic peptides of protein M of SARS-CoV Urbani [1]: 0.5 | Binding of serum 6 to linear peptides of protein M of SARS-CoV Urbani [1]: 0.2 | Binding of serum 6 to looped/cyclic peptides of protein M of SARS-CoV Urbani [1]: 0.8 | Binding of serum 37 to linear peptides of protein M of SARS-CoV Urbani [1]: 0.8 | Binding of serum 37 to looped/cyclic peptides of protein M of SARS-CoV Urbani [1]: 0.7 | Binding of serum 62 to linear peptides of protein M of SARS-CoV Urbani [1]: 0.7 | Binding of serum 62 to looped/cyclic peptides of protein M of SARS-CoV Urbani [1]: 0.6 | Binding of serum London to linear peptides of protein M of SARS-CoV Urbani [1]: 0.5 | Binding of serum London to looped/cyclic peptides of protein M of SARS-CoV Urbani [1]: 0.4 | Binding of serum SARS-green to linear peptides of protein M of SARS-CoV Urbani [1]: 0.2 | Binding of serum SARS-green to looped/cyclic peptides of protein M of SARS-CoV Urbani [1]: 0.3 | Binding of serum SARS-yellow to linear peptides of protein M of SARS-CoV Urbani [1]: 0.1 | Binding of serum SARS-yellow to looped/cyclic peptides of protein M of SARS-CoV Urbani [1]: 0.6 | Rabbit serum linear peptides [2]: 0.6 | Rabbit serum looped peptides [2]: 0.1 | Binding of Control Serum Blood-Bank to Looped peptides of the protein M of SARS-CoV Urbani [3]: 0.6 | Binding of Control serum Blood-bank to linear peptides of the protein M of SARS-CoV Urbani [3]: 0.6 | Binding of Control serum LUMC to linear peptides of the protein M of SARS-CoV Urbani [3]: 0.3 | Binding of Control serum LUMC to looped peptides of the protein M of SARS-CoV Urbani [3]: 0.6

YRINWVTGGIAIAMA
Binding of serum 1a to linear peptides of protein M of SARS-CoV Urbani [1]: 0.7 | Binding of serum 1a to looped/cyclic peptides of protein M of SARS-CoV Urbani [1]: 0.6 | Binding of serum 1b to linear peptides of protein M of SARS-CoV Urbani [1]: 0.6 | Binding of serum 1b to looped/cyclic peptides of protein M of SARS-CoV Urbani [1]: 0.4 | Binding of serum 2 to linear peptides of protein M of SARS-CoV Urbani [1]: 0.7 | Binding of serum 2 to looped/cyclic peptides of protein M of SARS-CoV Urbani [1]: 0.6 | Binding of serum 6 to linear peptides of protein M of SARS-CoV Urbani [1]: 0.3 | Binding of serum 6 to looped/cyclic peptides of protein M of SARS-CoV Urbani [1]: 0.5 | Binding of serum 37 to linear peptides of protein M of SARS-CoV Urbani [1]: 0.8 | Binding of serum 37 to looped/cyclic peptides of protein M of SARS-CoV Urbani [1]: 0.5 | Binding of serum 62 to linear peptides of protein M of SARS-CoV Urbani [1]: 0.8 | Binding of serum 62 to looped/cyclic peptides of protein M of SARS-CoV Urbani [1]: 0.6 | Binding of serum London to linear peptides of protein M of SARS-CoV Urbani [1]: 0.3 | Binding of serum London to looped/cyclic peptides of protein M of SARS-CoV Urbani [1]: 0.2 | Binding of serum SARS-green to linear peptides of protein M of SARS-CoV Urbani [1]: 0.3 | Binding of serum SARS-green to looped/cyclic peptides of protein M of SARS-CoV Urbani [1]: 0.0 | Binding of serum SARS-yellow to linear peptides of protein M of SARS-CoV Urbani [1]: 0.1 | Binding of serum SARS-yellow to looped/cyclic peptides of protein M of SARS-CoV Urbani [1]: 0.8 | Rabbit serum linear peptides [2]: 0.4 | Rabbit serum looped peptides [2]: 0.3 | Binding of Control Serum Blood-Bank to Looped peptides of the protein M of SARS-CoV Urbani [3]: 0.7 | Binding of Control serum Blood-bank to linear peptides of the protein M of SARS-CoV Urbani [3]: 0.8 | Binding of Control serum LUMC to linear peptides of the protein M of SARS-CoV Urbani [3]: 0.6 | Binding of Control serum LUMC to looped peptides of the protein M of SARS-CoV Urbani [3]: 0.6

YSHLLLVAAGMEAQF
Binding of serum 1a to linear peptides of protein X1 of SARS-CoV Urbani [1]: 0.7 | Binding of serum 1a to looped/cyclic peptide (PEPSCAN-ELISA) [1]: 0.4 | Binding of serum 1b to linear peptides of protein X1 of SARS-CoV Urbani [1]: 0.6 | Binding of serum 1b to looped/cyclic peptide (PEPSCAN-ELISA) [1]: 0.4 | Binding of serum 2 to linear peptides of protein X1 of SARS-CoV Urbani [1]: 0.5 | Binding of serum 2 to looped/cyclic peptide (PEPSCAN-ELISA) [1]: 0.5 | Binding of serum 6 to linear peptides of protein X1 of SARS-CoV Urbani [1]: 0.5 | Binding of serum 6 to looped/cyclic peptide (PEPSCAN-ELISA) [1]: 0.3 | Binding of serum 37 to linear peptides of protein X1 of SARS-CoV Urbani [1]: 0.6 | Binding of serum 37 to looped/cyclic peptide (PEPSCAN-ELISA) [1]: 0.7 | Binding of serum 62 to linear peptides of protein X1 of SARS-CoV Urbani [1]: 0.7 | Binding of serum 62 to looped/cyclic peptide (PEPSCAN-ELISA) [1]: 0.5 | Binding of serum London to linear peptides of protein X1 of SARS-CoV Urbani [1]: 0.3 | Binding of serum London to looped/cyclic peptide (PEPSCAN-ELISA) [1]: 0.3 | Binding of serum SARS-green to linear peptides of protein X1 of SARS-CoV Urbani [1]: 0.3 | Binding of serum SARS-green to looped/cyclic peptide (PEPSCAN-ELISA) [1]: 0.5 | Binding of serum SARS-yellow to linear peptides of protein X1 of SARS-CoV Urbani [1]: 0.4 | Binding of serum SARS-yellow to looped/cyclic peptide (PEPSCAN-ELISA) [1]: 0.3 | Binding of a rabbit serum to linear peptides [2]: 0.1 | Binding of a rabbit serum to looped peptides [2]: 0.4 | Binding of Control Serum Blood-Bank to Looped peptides [3]: 0.4 | Binding of Control serum Blood-bank to linear peptides [3]: 0.6 | Binding of Control serum LUMC to linear peptides [3]: 0.5 | Binding of Control serum LUMC to looped peptides [3]: 0.6
